In patent US10669284B2, “Fused thiazolopyrimidine derivatives as MNKS inhibitors” (LIFEARC, priority 2015, dated 2020) one finds inhibition data, which are given here for three molecules.

The target of one test is RET (Homo sapiens, UniProt P07949). The experiment in a line: Kinase selectivity screen RET. Particulars: read-out: % inhibition of RET.
In the next test the target is AKT1 (Homo sapiens, UniProt P31749). The experiment in a line: Kinase selectivity screen AKT1. Particulars: read-out: % inhibition of AKT1.
A further test addresses ABL1 (Homo sapiens, UniProt P00519). The experiment in a line: Kinase selectivity screen ABL1. The settings on record: read-out: % inhibition of ABL1.
For a further test, the target named is MTOR (Homo sapiens, UniProt P42345). In words: Kinase selectivity screen MTOR. Particulars: read-out: % inhibition of MTOR.
Another test concerns the target T1, NUAK1 (Homo sapiens, UniProt O60285).
T1 sequence (O60285 1-661): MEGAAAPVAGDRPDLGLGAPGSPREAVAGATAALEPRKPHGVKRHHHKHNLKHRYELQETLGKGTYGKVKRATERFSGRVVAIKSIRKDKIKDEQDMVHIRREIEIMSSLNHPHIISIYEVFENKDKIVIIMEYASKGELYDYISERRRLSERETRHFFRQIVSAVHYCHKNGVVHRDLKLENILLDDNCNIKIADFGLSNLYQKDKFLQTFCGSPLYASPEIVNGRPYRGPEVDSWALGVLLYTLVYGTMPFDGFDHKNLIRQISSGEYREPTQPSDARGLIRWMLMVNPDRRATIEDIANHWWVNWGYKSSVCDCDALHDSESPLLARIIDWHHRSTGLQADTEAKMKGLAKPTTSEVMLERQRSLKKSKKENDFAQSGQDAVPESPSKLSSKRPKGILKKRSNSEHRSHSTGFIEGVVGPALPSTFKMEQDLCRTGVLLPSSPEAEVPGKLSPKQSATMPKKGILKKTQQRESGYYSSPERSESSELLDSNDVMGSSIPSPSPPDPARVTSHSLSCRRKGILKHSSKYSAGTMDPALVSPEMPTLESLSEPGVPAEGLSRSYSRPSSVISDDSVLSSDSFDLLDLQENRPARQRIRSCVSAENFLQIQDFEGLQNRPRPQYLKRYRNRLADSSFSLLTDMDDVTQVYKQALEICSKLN
The experiment in a line: Kinase selectivity screen NUAK1. Particulars: read-out: % inhibition of NUAK1.

The target of another test is INSRR (Homo sapiens, UniProt P14616). In words: Kinase selectivity screen INSRR. Particulars: read-out: % inhibition of INSRR.
A further test has as its target EEF2K (Homo sapiens, UniProt O00418). The experiment in a line: Kinase selectivity screen EEF2K. Particulars: read-out: % inhibition of EEF2K.
A further test has as its target IGF1R (Homo sapiens, UniProt P08069). In words: Kinase selectivity screen IGF1R. Particulars: read-out: % inhibition of IGF1R.
The target of another test is ROCK1 (Homo sapiens, UniProt Q13464). In words: Kinase selectivity screen ROCK1. The settings on record: read-out: % inhibition of ROCK1.
The target in the next test is T2, AURKC (Homo sapiens, UniProt Q9UQB9).
T2 sequence (Q9UQB9 1-309): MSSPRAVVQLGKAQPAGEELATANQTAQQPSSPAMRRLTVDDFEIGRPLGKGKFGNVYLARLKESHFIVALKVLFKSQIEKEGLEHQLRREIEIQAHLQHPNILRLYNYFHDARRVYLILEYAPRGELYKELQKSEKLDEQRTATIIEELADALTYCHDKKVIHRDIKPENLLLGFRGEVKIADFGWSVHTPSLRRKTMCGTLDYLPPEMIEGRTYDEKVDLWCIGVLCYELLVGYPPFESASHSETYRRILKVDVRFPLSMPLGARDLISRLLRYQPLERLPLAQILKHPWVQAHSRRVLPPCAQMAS
In words: Kinase selectivity screen AURKC. The settings on record: read-out: % inhibition of AURKC.

The target of a further test is PRKAA2 (Homo sapiens, UniProt P54646). The experiment in a line: Kinase selectivity screen PRKAA2. The settings on record: read-out: % inhibition of PRKAA2.
The target in another test is MAP3K9 (Homo sapiens, UniProt P80192). In words: Kinase selectivity screen MAP3K9. The settings on record: read-out: % inhibition of MAP3K9.
The next test has as its target T3, ACVR1B (Homo sapiens, UniProt P36896).
T3 sequence (P36896 24-505): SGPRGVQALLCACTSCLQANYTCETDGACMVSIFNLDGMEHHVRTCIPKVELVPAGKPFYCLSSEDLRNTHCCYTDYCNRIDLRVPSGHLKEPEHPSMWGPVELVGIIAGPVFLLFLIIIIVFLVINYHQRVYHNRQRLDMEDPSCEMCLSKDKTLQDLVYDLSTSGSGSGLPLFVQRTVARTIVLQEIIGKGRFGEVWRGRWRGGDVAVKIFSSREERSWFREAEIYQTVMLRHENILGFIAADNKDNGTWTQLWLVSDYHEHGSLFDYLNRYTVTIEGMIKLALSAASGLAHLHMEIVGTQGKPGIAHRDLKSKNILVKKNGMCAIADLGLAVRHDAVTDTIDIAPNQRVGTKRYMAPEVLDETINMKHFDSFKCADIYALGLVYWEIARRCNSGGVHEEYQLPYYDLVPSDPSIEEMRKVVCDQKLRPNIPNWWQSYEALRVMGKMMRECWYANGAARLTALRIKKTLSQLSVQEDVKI
The experiment in a line: Kinase selectivity screen ACVR1B. The settings on record: read-out: % inhibition of ACVR1B.

A further test addresses RPS6KA1 (Homo sapiens, UniProt Q15418). The experiment in a line: Kinase selectivity screen RPS6KA1. The settings on record: read-out: % inhibition of RPS6KA1.
Another test deals with RPS6KA5 (Homo sapiens, UniProt O75582). The experiment in a line: Kinase selectivity screen RPS6KA5. The settings on record: read-out: % inhibition of RPS6KA5.
The target in the next test is CDK6/CCND3 (Homo sapiens, UniProt Q00534). The experiment in a line: Kinase selectivity screen CDK6/CCND3. Particulars: read-out: % inhibition of CDK6/CCND3.
For a further test, the target named is CDK9/CCNT1 (Homo sapiens, UniProt P50750). In words: Kinase selectivity screen CDK9/CCNT1. Particulars: read-out: % inhibition of CDK9/CCNT1.
CDK9/CCNT1, sequence (P50750 whole entry, species assumed): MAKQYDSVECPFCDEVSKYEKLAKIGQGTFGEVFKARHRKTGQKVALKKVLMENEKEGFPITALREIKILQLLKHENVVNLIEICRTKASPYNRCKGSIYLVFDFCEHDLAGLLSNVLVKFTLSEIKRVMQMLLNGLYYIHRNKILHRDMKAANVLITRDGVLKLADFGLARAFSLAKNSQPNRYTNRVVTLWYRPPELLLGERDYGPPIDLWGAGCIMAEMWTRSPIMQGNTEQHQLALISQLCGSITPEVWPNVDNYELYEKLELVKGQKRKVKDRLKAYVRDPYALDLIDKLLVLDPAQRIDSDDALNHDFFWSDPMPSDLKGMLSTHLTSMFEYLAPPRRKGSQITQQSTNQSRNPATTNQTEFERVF
CDK9/CCNT1, sequence (O60563 whole entry partner, species assumed): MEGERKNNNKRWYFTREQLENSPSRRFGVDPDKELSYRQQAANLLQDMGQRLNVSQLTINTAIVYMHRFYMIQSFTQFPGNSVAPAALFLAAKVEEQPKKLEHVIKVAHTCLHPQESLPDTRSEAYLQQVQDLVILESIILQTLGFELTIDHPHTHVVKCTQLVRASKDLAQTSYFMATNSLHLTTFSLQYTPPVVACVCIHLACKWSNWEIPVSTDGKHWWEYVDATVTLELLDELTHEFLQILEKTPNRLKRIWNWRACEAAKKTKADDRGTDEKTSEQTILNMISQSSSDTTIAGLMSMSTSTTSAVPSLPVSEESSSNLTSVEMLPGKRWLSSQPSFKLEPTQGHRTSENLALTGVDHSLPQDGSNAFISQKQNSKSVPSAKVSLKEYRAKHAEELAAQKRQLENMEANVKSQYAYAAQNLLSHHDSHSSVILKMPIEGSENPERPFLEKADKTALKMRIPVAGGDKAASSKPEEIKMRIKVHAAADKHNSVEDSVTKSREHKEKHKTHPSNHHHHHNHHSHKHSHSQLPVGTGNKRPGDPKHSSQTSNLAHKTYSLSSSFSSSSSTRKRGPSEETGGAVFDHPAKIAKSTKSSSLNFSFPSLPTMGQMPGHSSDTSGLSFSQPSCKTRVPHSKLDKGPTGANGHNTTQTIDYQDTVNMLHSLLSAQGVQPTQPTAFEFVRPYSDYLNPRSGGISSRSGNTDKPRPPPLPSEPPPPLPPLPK

ROCK1, sequence (Q13464 whole entry, species assumed): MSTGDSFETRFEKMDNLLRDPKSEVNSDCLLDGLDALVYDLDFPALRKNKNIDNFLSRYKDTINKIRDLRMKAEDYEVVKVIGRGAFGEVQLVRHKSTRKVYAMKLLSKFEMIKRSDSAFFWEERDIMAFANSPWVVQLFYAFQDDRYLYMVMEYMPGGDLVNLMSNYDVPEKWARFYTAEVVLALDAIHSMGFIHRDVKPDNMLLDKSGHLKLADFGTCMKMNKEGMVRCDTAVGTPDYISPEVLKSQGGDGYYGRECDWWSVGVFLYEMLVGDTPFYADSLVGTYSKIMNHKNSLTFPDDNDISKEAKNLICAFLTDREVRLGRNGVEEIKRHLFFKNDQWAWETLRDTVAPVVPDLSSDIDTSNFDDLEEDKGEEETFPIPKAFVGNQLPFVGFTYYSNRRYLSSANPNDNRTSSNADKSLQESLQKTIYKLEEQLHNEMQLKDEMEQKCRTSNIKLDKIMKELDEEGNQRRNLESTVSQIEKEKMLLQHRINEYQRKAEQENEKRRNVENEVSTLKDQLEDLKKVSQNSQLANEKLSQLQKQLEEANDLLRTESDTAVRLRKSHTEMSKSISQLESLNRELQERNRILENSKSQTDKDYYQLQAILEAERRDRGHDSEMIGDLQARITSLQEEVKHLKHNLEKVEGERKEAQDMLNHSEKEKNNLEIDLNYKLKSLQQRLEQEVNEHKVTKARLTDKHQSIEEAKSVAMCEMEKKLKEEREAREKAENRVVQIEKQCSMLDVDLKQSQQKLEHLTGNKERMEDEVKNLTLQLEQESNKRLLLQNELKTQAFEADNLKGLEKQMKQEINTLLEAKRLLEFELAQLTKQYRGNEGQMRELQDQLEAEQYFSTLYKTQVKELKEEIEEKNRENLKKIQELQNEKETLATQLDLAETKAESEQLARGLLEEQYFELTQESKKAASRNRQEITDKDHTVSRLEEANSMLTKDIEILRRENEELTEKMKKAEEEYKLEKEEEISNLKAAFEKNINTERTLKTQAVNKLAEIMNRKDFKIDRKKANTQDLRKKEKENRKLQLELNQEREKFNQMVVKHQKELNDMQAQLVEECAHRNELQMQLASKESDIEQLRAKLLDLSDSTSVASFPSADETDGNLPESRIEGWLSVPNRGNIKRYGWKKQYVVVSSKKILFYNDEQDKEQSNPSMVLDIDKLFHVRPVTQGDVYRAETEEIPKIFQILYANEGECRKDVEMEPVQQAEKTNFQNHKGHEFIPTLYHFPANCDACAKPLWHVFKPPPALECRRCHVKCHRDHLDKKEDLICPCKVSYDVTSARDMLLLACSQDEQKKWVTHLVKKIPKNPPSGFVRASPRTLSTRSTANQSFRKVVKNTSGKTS
CDK6/CCND3, sequence (Q00534 whole entry, species assumed): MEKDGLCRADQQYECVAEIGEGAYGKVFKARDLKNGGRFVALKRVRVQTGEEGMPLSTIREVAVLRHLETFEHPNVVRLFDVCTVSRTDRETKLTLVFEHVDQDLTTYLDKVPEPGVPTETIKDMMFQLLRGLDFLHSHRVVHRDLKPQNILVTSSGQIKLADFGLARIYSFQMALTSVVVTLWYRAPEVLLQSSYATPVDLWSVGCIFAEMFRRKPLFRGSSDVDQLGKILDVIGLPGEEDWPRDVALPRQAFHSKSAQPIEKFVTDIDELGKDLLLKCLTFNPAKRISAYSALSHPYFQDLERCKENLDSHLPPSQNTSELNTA
CDK6/CCND3, sequence (P30281 whole entry partner, species assumed): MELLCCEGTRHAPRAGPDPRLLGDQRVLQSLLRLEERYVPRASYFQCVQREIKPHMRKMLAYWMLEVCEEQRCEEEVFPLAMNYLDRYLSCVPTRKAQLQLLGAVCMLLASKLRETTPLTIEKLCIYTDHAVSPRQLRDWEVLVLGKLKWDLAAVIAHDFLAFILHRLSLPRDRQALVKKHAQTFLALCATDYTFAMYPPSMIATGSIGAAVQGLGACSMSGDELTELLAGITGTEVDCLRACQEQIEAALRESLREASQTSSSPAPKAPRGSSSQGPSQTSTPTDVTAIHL
EEF2K, sequence (O00418 whole entry): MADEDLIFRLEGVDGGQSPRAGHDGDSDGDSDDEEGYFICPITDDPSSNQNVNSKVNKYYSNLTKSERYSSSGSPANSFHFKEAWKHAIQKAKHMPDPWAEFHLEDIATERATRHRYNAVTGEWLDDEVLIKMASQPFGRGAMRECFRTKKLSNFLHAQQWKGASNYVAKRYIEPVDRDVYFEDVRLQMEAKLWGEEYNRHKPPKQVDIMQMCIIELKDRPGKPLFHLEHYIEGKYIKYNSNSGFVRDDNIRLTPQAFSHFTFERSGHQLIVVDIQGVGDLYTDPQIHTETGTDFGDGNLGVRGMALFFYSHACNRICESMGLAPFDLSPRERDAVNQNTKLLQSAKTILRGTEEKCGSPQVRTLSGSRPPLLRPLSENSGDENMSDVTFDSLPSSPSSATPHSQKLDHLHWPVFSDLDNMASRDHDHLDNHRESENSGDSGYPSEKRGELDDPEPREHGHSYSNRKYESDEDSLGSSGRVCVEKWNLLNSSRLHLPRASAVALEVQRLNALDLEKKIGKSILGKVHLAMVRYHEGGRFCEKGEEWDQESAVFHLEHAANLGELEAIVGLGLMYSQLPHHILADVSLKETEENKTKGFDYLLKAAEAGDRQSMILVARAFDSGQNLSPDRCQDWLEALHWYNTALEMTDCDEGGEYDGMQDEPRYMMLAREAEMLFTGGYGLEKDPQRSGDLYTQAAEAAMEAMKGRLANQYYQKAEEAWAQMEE
AKT1, sequence (P31749 whole entry, species assumed): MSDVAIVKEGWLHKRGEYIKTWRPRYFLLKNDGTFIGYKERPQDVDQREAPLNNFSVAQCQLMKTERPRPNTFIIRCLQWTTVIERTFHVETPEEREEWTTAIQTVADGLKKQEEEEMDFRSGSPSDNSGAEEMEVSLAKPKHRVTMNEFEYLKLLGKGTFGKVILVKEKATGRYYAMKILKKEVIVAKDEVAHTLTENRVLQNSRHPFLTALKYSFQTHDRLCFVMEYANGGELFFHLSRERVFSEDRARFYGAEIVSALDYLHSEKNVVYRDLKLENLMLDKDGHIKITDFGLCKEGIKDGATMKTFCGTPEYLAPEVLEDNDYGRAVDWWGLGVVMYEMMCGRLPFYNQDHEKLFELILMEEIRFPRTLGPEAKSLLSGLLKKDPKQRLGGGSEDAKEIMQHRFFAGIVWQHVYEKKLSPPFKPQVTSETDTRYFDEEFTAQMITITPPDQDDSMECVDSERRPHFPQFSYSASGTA
RPS6KA1, sequence (Q15418 whole entry, species assumed): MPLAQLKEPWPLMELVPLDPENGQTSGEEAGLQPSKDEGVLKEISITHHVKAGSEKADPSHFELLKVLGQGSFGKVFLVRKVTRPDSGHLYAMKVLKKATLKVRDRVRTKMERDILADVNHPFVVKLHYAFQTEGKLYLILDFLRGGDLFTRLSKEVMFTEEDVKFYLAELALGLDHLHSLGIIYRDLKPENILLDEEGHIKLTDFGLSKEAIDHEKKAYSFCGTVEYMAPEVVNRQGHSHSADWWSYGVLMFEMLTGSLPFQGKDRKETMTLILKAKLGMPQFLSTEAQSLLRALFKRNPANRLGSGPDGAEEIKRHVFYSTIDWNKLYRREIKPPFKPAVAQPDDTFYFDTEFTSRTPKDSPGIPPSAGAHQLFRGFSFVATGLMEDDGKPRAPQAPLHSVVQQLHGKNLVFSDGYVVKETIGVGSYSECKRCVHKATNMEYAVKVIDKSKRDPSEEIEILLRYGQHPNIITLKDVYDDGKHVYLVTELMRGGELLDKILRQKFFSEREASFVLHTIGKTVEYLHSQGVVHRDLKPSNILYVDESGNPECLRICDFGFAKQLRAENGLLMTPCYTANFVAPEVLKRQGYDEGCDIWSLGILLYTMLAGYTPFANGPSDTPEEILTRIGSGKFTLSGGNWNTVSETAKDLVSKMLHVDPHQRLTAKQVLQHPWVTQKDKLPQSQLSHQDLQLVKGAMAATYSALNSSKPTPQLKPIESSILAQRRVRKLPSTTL

Turning to `O=C(NCC1CCNCC1)c1nc2c(N3CCc4cc(F)ccc43)ncnc2s1` [Example 58, 7-(5-fluoroindolin-1-yl)-N-(4-piperidylmethyl)thiazolo[5,4-d]pyrimidine-2-carboxamide], the inhibition at 1 µM stood at 0% at RET; 0% at AKT1; 6% on ABL1; 0% on MTOR; 33% at NUAK1; 13% on INSRR. Also, the inhibition at 1 µM amounted to 0% on EEF2K; 11% at IGF1R; 0% on ROCK1; 5% at AURKC; 1% on PRKAA2; 24% at MAP3K9. For the same molecule, the inhibition at 1 µM amounted to 0% on ACVR1B; 36% on RPS6KA1; 0% at RPS6KA5; 0% at CDK6/CCND3; 11% at CDK9/CCNT1.
`CC(C)Oc1cc(F)ccc1Nc1ncnc2sc(C(=O)NCC3CCNCC3)nc12` [Example 10, 7-(4-fluoro-2-isopropoxy-anilino)-N-(4-piperidylmethyl)thiazolo[5,4-d]pyrimidine-2-carboxamide]: the inhibition at 1 µM on RET was determined as 0%; at AKT1, 0%; at ABL1, 4%; at MTOR it was 4%; on NUAK1, 15%; on INSRR, 10%. The inhibition at 1 µM on EEF2K was 4%; at IGF1R, 12%; at ROCK1, 0%; at AURKC it was 14%; at PRKAA2, 1%; at MAP3K9, 11%. In addition, the inhibition at 1 µM at ACVR1B came to 6%; on RPS6KA1, 30%; at RPS6KA5 it was 0%; on CDK6/CCND3, 3%; on CDK9/CCNT1, 2%.
As to `CN(C)CCCNC(=O)c1nc2c(N3CCc4cc(F)ccc43)ncnc2s1` [Example 64, N-[3-(dimethylamino)propyl]-7-(5-fluoroindolin-1-yl)thiazolo[5,4-d]pyrimidine-2-carboxamide], the inhibition at 1 µM on RET was determined as 0%; on AKT1 it was 0%; at ABL1, 4%; at MTOR, 3%; on NUAK1, 43%; at INSRR, 0%. Also, the inhibition at 1 µM was 0% at EEF2K; 0% on IGF1R; 4% on ROCK1; 15% at AURKC; 45% at PRKAA2; 1% at MAP3K9. In addition, the inhibition at 1 µM was 15% on ACVR1B; 49% on RPS6KA1; 24% on RPS6KA5; 9% at CDK6/CCND3; 4% on CDK9/CCNT1.
